EPA's CvTdb concentration-time database

Legend:
Test in all cases: concentration in plasma after dosing
Rat [1] = details: 20 min; dosed: Bromochloroacetic acid; 10 mg/kg; oral; Male; Harlan Sprague Dawley
Rat [2] = details: dosed: Bromochloroacetic acid, 40 mg/kg, oral, Female, Harlan Sprague Dawley
Rat [3] = details: dosed: Bromochloroacetic acid, 10 mg/kg, oral, Male, Harlan Sprague Dawley
Rat [4] = details: dosed: Bromochloroacetic acid, 10 mg/kg, oral, Male, Harlan Sprague Dawley; remark: listed apart in the source
Rat [5] = details: dosed: Bromochloroacetic acid, 10 mg/kg, oral, Male, Harlan Sprague Dawley; remark: listed apart in the source
Rat [6] = details: dosed: Bromochloroacetic acid, 10 mg/kg, oral, Male, Harlan Sprague Dawley; remark: listed apart in the source
Rat [7] = details: dosed: Bromochloroacetic acid, 10 mg/kg, oral, Male, Harlan Sprague Dawley; remark: listed apart in the source
Rat [8] = details: dosed: Bromochloroacetic acid, 10 mg/kg, oral, Male, Harlan Sprague Dawley; remark: listed apart in the source
Rat [9] = details: 0.75 h; dosed: Bromochloroacetic acid; 40 mg/kg; oral; Female; Harlan Sprague Dawley
Rat [10] = details: 20 min; dosed: Bromochloroacetic acid; 10 mg/kg; oral; Male; Harlan Sprague Dawley; remark: listed apart in the source
Rat [11] = details: dosed: Bromochloroacetic acid, 10 mg/kg, oral, Male, Harlan Sprague Dawley; remark: listed apart in the source
Rat [12] = details: 0.75 h; dosed: Bromochloroacetic acid; 40 mg/kg; oral; Female; Harlan Sprague Dawley; remark: listed apart in the source
Rat [13] = details: dosed: Bromochloroacetic acid, 10 mg/kg, oral, Male, Harlan Sprague Dawley; remark: listed apart in the source
Rat [14] = details: dosed: Bromochloroacetic acid, 40 mg/kg, oral, Female, Harlan Sprague Dawley; remark: listed apart in the source
Rat [15] = details: 0.75 h; dosed: Bromochloroacetic acid; 40 mg/kg; oral; Female; Harlan Sprague Dawley; remark: listed apart in the source
Rat [16] = details: dosed: Bromochloroacetic acid, 40 mg/kg, oral, Female, Harlan Sprague Dawley; remark: listed apart in the source
Rat [17] = details: dosed: Bromochloroacetic acid, 40 mg/kg, oral, Female, Harlan Sprague Dawley; remark: listed apart in the source
Rat [18] = details: 20 min; dosed: Bromochloroacetic acid; 10 mg/kg; oral; Male; Harlan Sprague Dawley; remark: listed apart in the source
Rat [19] = details: dosed: Bromochloroacetic acid, 40 mg/kg, oral, Female, Harlan Sprague Dawley; remark: listed apart in the source
Rat [20] = details: 0.75 h; dosed: Bromochloroacetic acid; 40 mg/kg; oral; Female; Harlan Sprague Dawley; remark: listed apart in the source
Rat [21] = details: dosed: Bromochloroacetic acid, 10 mg/kg, oral, Male, Harlan Sprague Dawley; remark: listed apart in the source
Rat [22] = details: 0.25 h; dosed: Bromochloroacetic acid; 10 mg/kg; oral; Male; Harlan Sprague Dawley
Rat [23] = details: 0.75 h; dosed: Bromochloroacetic acid; 40 mg/kg; oral; Female; Harlan Sprague Dawley; remark: listed apart in the source
Rat [24] = details: 20 min; dosed: Bromochloroacetic acid; 10 mg/kg; oral; Male; Harlan Sprague Dawley; remark: listed apart in the source
Rat [25] = details: dosed: Bromochloroacetic acid, 40 mg/kg, oral, Female, Harlan Sprague Dawley; remark: listed apart in the source
Rat [26] = details: 20 min; dosed: Bromochloroacetic acid; 10 mg/kg; oral; Male; Harlan Sprague Dawley; remark: listed apart in the source
Rat [27] = details: dosed: Bromochloroacetic acid, 10 mg/kg, oral, Male, Harlan Sprague Dawley; remark: listed apart in the source
Rat [28] = details: dosed: Bromochloroacetic acid, 40 mg/kg, oral, Female, Harlan Sprague Dawley; remark: listed apart in the source
Rat [29] = details: dosed: Bromochloroacetic acid, 40 mg/kg, oral, Female, Harlan Sprague Dawley; remark: listed apart in the source
Rat [30] = details: dosed: Bromochloroacetic acid, oral, Harlan Sprague Dawley
Rat [31] = details: dosed: Bromochloroacetic acid, 40 mg/kg, oral, Female, Harlan Sprague Dawley; remark: listed apart in the source
Rat [32] = details: dosed: Bromochloroacetic acid, 10 mg/kg, oral, Male, Harlan Sprague Dawley; remark: listed apart in the source
Rat [33] = details: dosed: Bromochloroacetic acid, 40 mg/kg, oral, Female, Harlan Sprague Dawley; remark: listed apart in the source
Rat [34] = details: dosed: Bromochloroacetic acid, 10 mg/kg, oral, Male, Harlan Sprague Dawley; remark: listed apart in the source
Rat [35] = details: dosed: Bromochloroacetic acid, 10 mg/kg, oral, Male, Harlan Sprague Dawley; remark: listed apart in the source
Rat [36] = details: dosed: Bromochloroacetic acid, 10 mg/kg, oral, Male, Harlan Sprague Dawley; remark: listed apart in the source
Rat [37] = details: dosed: Bromochloroacetic acid, 40 mg/kg, oral, Female, Harlan Sprague Dawley; remark: listed apart in the source
Rat [38] = details: dosed: Bromochloroacetic acid, 10 mg/kg, oral, Male, Harlan Sprague Dawley; remark: listed apart in the source
Rat [39] = details: dosed: Bromochloroacetic acid, 40 mg/kg, oral, Female, Harlan Sprague Dawley; remark: listed apart in the source
Rat [40] = details: dosed: Bromochloroacetic acid, 40 mg/kg, oral, Female, Harlan Sprague Dawley; remark: listed apart in the source
Rat [41] = details: dosed: Bromochloroacetic acid, 10 mg/kg, oral, Male, Harlan Sprague Dawley; remark: listed apart in the source
Rat [42] = details: 0.25 h; dosed: Bromochloroacetic acid; 10 mg/kg; oral; Male; Harlan Sprague Dawley; remark: listed apart in the source
Rat [43] = details: dosed: Bromochloroacetic acid, 40 mg/kg, oral, Female, Harlan Sprague Dawley; remark: listed apart in the source
Rat [44] = details: 5 min; dosed: Bromochloroacetic acid; 40 mg/kg; oral; Female; Harlan Sprague Dawley
Rat [45] = details: dosed: Bromochloroacetic acid, 10 mg/kg, oral, Male, Harlan Sprague Dawley; remark: listed apart in the source
Rat [46] = details: dosed: Bromochloroacetic acid, 40 mg/kg, oral, Female, Harlan Sprague Dawley; remark: listed apart in the source
Rat [47] = details: dosed: Bromochloroacetic acid, 10 mg/kg, oral, Male, Harlan Sprague Dawley; remark: listed apart in the source
Rat [48] = details: dosed: Bromochloroacetic acid, 40 mg/kg, oral, Female, Harlan Sprague Dawley; remark: listed apart in the source

O=C(O)C(Cl)Br (stereo not given) [Bromochloroacetic acid]
Details	concentration in plasma [ng/mL]
Rat [1]	521
Rat [9]	10300
Rat [10]	544
Rat [12]	11800
Rat [15]	6170
Rat [18]	663
Rat [20]	9710
Rat [22]	476
Rat [23]	10700
Rat [24]	508
Rat [26]	733
Rat [42]	576
Rat [44]	2990

Details	concentration in plasma [ng/mL]
Rat [2], 1.5 h	5290
Rat [2], 5 min	1440
Rat [3], 0.25 h	727
Rat [3], 2 h	136
Rat [4], 1 h	224
Rat [4], 5 min	362
Rat [5], 1 h	196
Rat [5], 5 min	423
Rat [6], 1.5 h	122
Rat [6], 10 min	475
Rat [7], 1.5 h	107
Rat [7], 10 min	494
Rat [8], 0.25 h	545
Rat [8], 3 h	88.7
Rat [11], 0.75 h	283
Rat [11], 2 min	71.7
Rat [13], 1 h	299
Rat [13], 5 min	383
Rat [14], 1 h	8650
Rat [14], 2 min	484
Rat [16], 6 h	201
Rat [16], 20 min	5740
Rat [17], 4 h	1060
Rat [17], 6 h	172
Rat [19], 1 h	7500
Rat [19], 2 min	396
Rat [21], 1.5 h	96.2
Rat [21], 10 min	241
Rat [25], 1.5 h	7410
Rat [25], 5 min	4130
Rat [27], 0.75 h	218
Rat [27], 2 min	104
Rat [28], 4 h	2010
Rat [28], 20 min	3310
Rat [29], 1 h	9330
Rat [29], 2 min	564
Rat [31], 1 h	7660
Rat [31], 2 min	536
Rat [32], 0.25 h	643
Rat [32], 2 h	120
Rat [33], 0.25 h	3060
Rat [33], 3 h	1880
Rat [34], 1.5 h	155
Rat [34], 10 min	322
Rat [35], 1 h	164
Rat [35], 5 min	255
Rat [36], 0.75 h	284
Rat [36], 2 min	80.1
Rat [37], 2 h	3920
Rat [37], 10 min	2220
Rat [38], 0.75 h	225
Rat [38], 2 min	104
Rat [39], 0.25 h	5810
Rat [39], 3 h	2170
Rat [40], 1.5 h	4490
Rat [40], 5 min	2540
Rat [41], 1.5 h	238
Rat [41], 10 min	516
Rat [43], 1 h	5710
Rat [43], 2 min	984
Rat [45], 1 h	201
Rat [45], 5 min	210
Rat [46], 1.5 h	6540
Rat [46], 5 min	2780
Rat [47], 0.75 h	485
Rat [47], 2 min	216
Rat [48], 2 h	4710
Rat [48], 10 min	2240

Rat [30]
Details	concentration in plasma [ng/mL]
0.25 h, 10 mg/kg, Male	543
0.25 h, 40 mg/kg, Female	5910
0.75 h, 10 mg/kg, Male	177
0.75 h, 40 mg/kg, Female	7630
1 h, 10 mg/kg, Male	187
1 h, 40 mg/kg, Female	6900
1.5 h, 10 mg/kg, Male	166
1.5 h, 40 mg/kg, Female	4860
2 h, 10 mg/kg, Male	95.5
2 h, 40 mg/kg, Female	2940
2 min, 10 mg/kg, Male	83.2
3 h, 40 mg/kg, Female	1990
4 h, 40 mg/kg, Female	3160
5 min, 10 mg/kg, Male	214
5 min, 40 mg/kg, Female	1770
10 min, 10 mg/kg, Male	168
10 min, 40 mg/kg, Female	3420
20 min, 10 mg/kg, Male	364
20 min, 40 mg/kg, Female	4390
